Source: publication PMC11359831, “Stepwise Structural Simplification of the Dihydroxyanthraquinone Moiety of a Multitarget Rhein-Based Anti-Alzheimer Lead to Improve Drug Metabolism and Pharmacokinetic Properties” (Pharmaceutics, 2024)
Values joined by “and” are separate entries in the source; they are usually repeats but may differ in a detail not shown here. Equal entries are not always repeated.

Assays:
[1] = target: T1, tau aggregation (Homo sapiens, UniProt P10636); assay: Tau aggregation inhibition in genetically modified E. coli cells (Th-S fluorescence); assay type: cell-based, Escherichia coli; conditions: live E. coli cells overexpressing tau; for inhibition at 10 µM: read-out: Tau Aggregation % inh. @10 µM
T1 construct: expressed in transfected cells; host or cells: E. coli BL21 (DE3) bearing pTARA and pRKT42
Description: For tau overexpression, M9 minimal medium (10 mL) containing glucose (0.5%), ampicillin (50 μg/mL), chloramphenicol (12.5 μg/mL), and E. coli BL21 (DE3) cells bearing the pTARA plasmid, which carries the RNA polymerase gene of the T7 phage (T7RP) under control of the PBAD promoter, and subsequent transformation with the pRKT42 vector were used instead. In this case, the overnight culture for a 1:500 dilution was added to fresh M9 minimal medium containing glucose (0.5%), chloramphenicol (12.5 μg/mL), ampicillin (50 μg/mL), and Th-S (250 µM).
(§1) For Aβ42 overexpression, the corresponding E. coli cell cultures were kept growing overnight (37 °C; 250 rpm) until they reached an OD600 = 0.6. These cultures (980 μL) were added to a mixture of 10 μL of a solution of the new compounds in DMSO and 10 μL of 100 mM isopropyl 1-thio-β-D-galactopyranoside (IPTG), to reach a final compound concentration of 10 μM. The same procedure was used for tau overexpression but employing 10 μL of 25% arabinose instead of IPTG. The resulting E. coli cultures were kept growing overnight (37 °C; 1400 rpm) using an Eppendorf Thermomixer (Hamburg, Germany). To prepare a negative control for the assay, showing the highest amount of the amyloidogenic protein, the same quantity of DMSO, without the compounds to be tested, was added to the sample. With the double purpose of obtaining positive controls devoid of the amyloidogenic proteins and assessing the potential intrinsic toxicity of the new compounds, we also prepared samples that had not been treated with either IPTG or arabinose (non-induced samples).
(§2) To assess the inhibitory activity of compounds 4–7 on Aβ42 and tau aggregation within E. coli cells, a fluorescence assay was employed, using Th-S ([…] stock solution, T1892, Sigma, St. Louis, MO, USA) in double-distilled water (Milli-Q system, Millipore, Bay City, MI, USA) and an Aminco Bowman Series 2 luminescence spectrophotometer (Aminco-Bowman AB2, SLM Aminco, Rochester, NY, USA), working at 25 °C in the wavelength range of 460–600 nm, with λex = 445 nm, slit widths of 4 nm, and λem = 485 nm. The results are given as the average of nine independent experiments, each performed in triplicate.

[2] = target: T2, human serum BChE (hBChE) (Homo sapiens, UniProt P06276); assay: biochemical; conditions: for IC50: human serum BChE, Ellman method, mean ± standard error; for increase in hBChE inhibitory activity relative to hybrid 3: relative to dihydroxyanthraquinone hybrid 3
T2 construct: human serum BChE (hBChE); purchased Sigma (Milan, Italy); host or cells: human serum
Description: (§5) The stock and assay solutions were prepared as follows:
Stock hBChE solution: solution of the lyophilized powder in 0.1% aq. gelatin.
(§6) Stock solutions of the new compounds: 1 mM solutions in methanol, with further dilutions in this solvent to the desired concentrations.

[3] = Plasma stability, rat plasma; assay type: in vitro ADME; conditions: 37 °C; for remaining at 1 h, 5 μM / remaining at 6 h, 5 μM: rat, plasma; for remaining at 1 h, 5 μM: read-out: Plasma Stability % Remaining Compound, rat, 1 h; for remaining at 6 h, 5 μM: read-out: Plasma Stability % Remaining Compound, rat, 6 h
Description: (§3) The plasma stability of the new compounds was tested using in human, mouse, and rat plasma (Seralab). One hundred μL of 5 μM solutions of the new compounds in plasma were plated and incubated at 37 °C for 0, 60, 120, and 360 min, and then treated with 300 μL of acetonitrile and centrifuged (4000× g; 60 min; 4 °C). Sample quantification was performed by UPLC/MS/MS analysis of the resulting supernatant using a UPLC QSM Waters Acquity apparatus, equipped with a Waters ACQUITY BEH C18 1.7 μm 2.1 × 50 mm column, eluting with 0.1% formic acid in water or in acetonitrile, with a flow of 0.6 mL/min. The gradient indicated in Table 1 was used in this assay.
(§4) Compound concentration was calculated from the MS peak areas and expressed as the percentage of remaining compound at the different tested times.

[4] = Plasma stability, human plasma; assay type: in vitro ADME; conditions: 37 °C; for remaining at 1 h, 5 μM: read-out: Plasma Stability % Remaining Compound, human, 1 h; for remaining at 6 h, 5 μM: read-out: Plasma Stability % Remaining Compound, human, 6 h
[5] = Fish embryo acute toxicity (FET) test in zebrafish embryos; assay type: in vivo; conditions: in vivo, other: embryos exposed by immersion in the test solution, pH 7.4, 72 h of exposure, read-out: LC50 (CI95)
Description: Test solutions were freshly prepared for each experiment and were renewed every 24 h. The maximum tested compound concentration was 100 µM and four additional concentrations were also prepared by applying a 1:2 dilution factor. A 1% DMSO solution was used as a vehicle control.
Six-well plates were incubated at 26 ± 1 °C under a 14:10 light:dark cycle for 72 h. To assess the potential lethality of the new compounds, we followed, every 24 h, the four parameters that are outlined in the OECD Guideline No. 236: embryo coagulation, lack of somite formation, non-detachment of the tail, and absence of a heartbeat (from 48 h onward). The percentage of lethality at each concentration that was tested for the new compounds was recorded and expressed as mean ± SEM from three or more independent experiments. […] LOAEC values were determined through an ANOVA test with Bonferroni’s post-hoc test for multiple comparisons (significance threshold: p < 0.05).

[6] = target: T3, Aβ42 aggregation (Homo sapiens, UniProt P05067); assay: Aβ42 aggregation inhibition in genetically modified E. coli cells (Th-S fluorescence); assay type: cell-based, Escherichia coli; conditions: for inhibition at 10 µM: live E. coli cells overexpressing Aβ42, read-out: Aβ42 Aggregation % inh. @10 µM
T3 construct: expressed in transfected cells; host or cells: E. coli BL21 (DE3) bearing pET28a-Aβ42
Description: For Aβ42 overexpression, M9 minimal medium (10 mL) containing kanamycin (50 μg/mL) was added to a colony of E. coli BL21 (DE3) competent cells, bearing the pET28a plasmid (Novagen, Inc., Madison, WI, USA), which contains the DNA sequence encoding for Aβ42. After overnight culture, the volume necessary to obtain a 1:500 dilution was added to fresh M9 minimal medium that contained kanamycin (50 μg/mL) and thioflavin-S (Th-S, 250 µM).
as §1, §2

[7] = Plasma stability, mouse plasma; assay type: in vitro ADME; conditions: 37 °C; for remaining at 1 h, 5 μM: read-out: Plasma Stability % Remaining Compound, mouse, 1 h; for remaining at 6 h, 5 μM: read-out: Plasma Stability % Remaining Compound, mouse, 6 h
Description: as §3, §4

[8] = target: T4, human recombinant AChE (hAChE) (Homo sapiens, UniProt P22303); assay: biochemical; conditions: for IC50: human recombinant AChE, Ellman method, mean ± standard error; for AChE vs. BChE selectivity: hBChE IC50 relative to hAChE IC50
T4 construct: purchased Sigma (Milan, Italy)
Description: as §5
Stock hAChE solution: solution of the lyophilized powder in 0.1% Triton X-100/0.1 M potassium phosphate (pH 8.0).
as §6

[9] = in vitro; conditions: PAMPA, PAMPA-BBB
Description: The parallel artificial membrane permeability assay for the blood–brain barrier (PAMPA-BBB) [41] was used to assess the in vitro brain permeability of the new compounds. For the assay, the compounds were dissolved in mixtures of PBS and ethanol (70:30).

[10] = Brain Permeability Pe, mean ± SD
[11] = Brain permeability class, Table 4

T1 sequence (P10636 other isoform, or with tags, fused parts or gaps): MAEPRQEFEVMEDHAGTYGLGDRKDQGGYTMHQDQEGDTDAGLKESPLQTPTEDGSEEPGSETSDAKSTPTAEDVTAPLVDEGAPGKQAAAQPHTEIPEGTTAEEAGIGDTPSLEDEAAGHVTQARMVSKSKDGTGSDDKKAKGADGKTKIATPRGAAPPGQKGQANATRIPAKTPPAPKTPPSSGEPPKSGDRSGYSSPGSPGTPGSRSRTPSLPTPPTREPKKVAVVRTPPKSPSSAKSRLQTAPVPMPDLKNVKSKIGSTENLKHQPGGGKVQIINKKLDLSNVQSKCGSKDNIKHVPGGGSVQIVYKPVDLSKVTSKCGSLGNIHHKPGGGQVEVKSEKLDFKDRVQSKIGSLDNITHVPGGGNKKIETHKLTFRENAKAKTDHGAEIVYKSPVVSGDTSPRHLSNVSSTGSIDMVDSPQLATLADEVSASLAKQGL
T4 sequence (P22303 32-614): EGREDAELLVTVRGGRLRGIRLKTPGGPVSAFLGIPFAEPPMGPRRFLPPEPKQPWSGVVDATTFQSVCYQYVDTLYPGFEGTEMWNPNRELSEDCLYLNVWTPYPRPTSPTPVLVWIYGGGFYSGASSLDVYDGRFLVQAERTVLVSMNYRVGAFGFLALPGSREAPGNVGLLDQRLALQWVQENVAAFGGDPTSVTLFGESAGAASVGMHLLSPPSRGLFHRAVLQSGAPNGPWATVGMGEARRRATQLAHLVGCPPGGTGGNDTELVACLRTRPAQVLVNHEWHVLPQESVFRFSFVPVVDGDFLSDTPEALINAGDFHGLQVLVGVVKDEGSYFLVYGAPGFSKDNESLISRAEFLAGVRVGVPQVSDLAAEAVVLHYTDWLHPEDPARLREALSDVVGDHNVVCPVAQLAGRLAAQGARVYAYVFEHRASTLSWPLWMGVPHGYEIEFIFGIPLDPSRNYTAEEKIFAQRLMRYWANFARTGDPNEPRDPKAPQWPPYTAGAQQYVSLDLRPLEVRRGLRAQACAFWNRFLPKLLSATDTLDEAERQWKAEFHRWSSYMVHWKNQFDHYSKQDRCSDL
T3 sequence (P05067 672-713): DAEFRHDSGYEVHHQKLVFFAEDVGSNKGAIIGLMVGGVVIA
T2 sequence (P06276 29-602): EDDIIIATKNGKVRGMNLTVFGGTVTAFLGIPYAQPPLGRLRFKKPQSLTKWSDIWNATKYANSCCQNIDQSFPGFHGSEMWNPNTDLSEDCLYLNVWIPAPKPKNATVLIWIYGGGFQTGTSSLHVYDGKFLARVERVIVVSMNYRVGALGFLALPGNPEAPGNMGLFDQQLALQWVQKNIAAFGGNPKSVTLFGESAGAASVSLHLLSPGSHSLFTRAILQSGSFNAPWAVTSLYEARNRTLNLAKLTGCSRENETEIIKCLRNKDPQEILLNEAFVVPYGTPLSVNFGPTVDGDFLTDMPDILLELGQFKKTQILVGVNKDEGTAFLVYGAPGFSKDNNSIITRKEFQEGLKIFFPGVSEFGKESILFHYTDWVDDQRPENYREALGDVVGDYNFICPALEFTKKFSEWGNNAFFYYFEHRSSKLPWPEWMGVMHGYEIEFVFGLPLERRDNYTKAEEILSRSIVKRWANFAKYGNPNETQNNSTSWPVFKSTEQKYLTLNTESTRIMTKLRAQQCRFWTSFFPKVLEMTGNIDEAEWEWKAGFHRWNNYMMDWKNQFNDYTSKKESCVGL

Compound | Tau Aggregation % inh. @10 µM [1] [%] | inhibition at 10 µM [1] [%] | IC50 [2] | increase in hBChE inhibitory activity relative to hybrid 3 [2] | Plasma Stability % Remaining Compound, rat, 6 h ([3]; 6 h, 5 μM) [%] | remaining at 1 h, 5 μM [3] [%] | remaining at 6 h, 5 μM ([3]; 6 h) [%] | remaining at 1 h, 5 μM [4] [%] | remaining at 6 h, 5 μM ([4]; 6 h) [%] | LC50 at 72 h [5] [nM] | Aβ42 Aggregation % inh. @10 µM ([6]; live E. coli cells overexpressing Aβ42) [%] | inhibition at 10 µM [6] [%] | remaining at 1 h, 5 μM [7] [%] | remaining at 6 h, 5 μM [7] [%] | IC50 [8] | Papp [9, 10] [×10⁻⁶ cm/s] | Papp [9, 11] [×10⁻⁶ cm/s] | % hydrolyzed in human plasma after 6 h ([4]; 6 h) [%] | AChE vs. BChE selectivity [8]
CC(=O)c1cccc(C(=O)NCCCCCCCCCNc2c3c(nc4cc(Cl)ccc24)CC2C=C(C)CC3C2)c1 (stereo not drawn) [Compound 7, 3-Acetyl-N-{9-[(3-chloro-6,7,10,11-tetrahydro-9-methyl-7,11-methanocycloocta[b]quinolin-12-yl)amino]nonyl}benzamide] | 68.3 ± 3.1 | 68 | 13 nM and 12.7 nM | 40–50 fold | 85.8 | 98.9 | 86 | 100 | 100 | > 100000 | 73.1 ± 4.8 | 73 | 97.5 | 96 | 6 nM and 5.97 nM | 16.5 ± 1.1 | > 5.2 |  | 
CC1=CC2Cc3nc4cc(Cl)ccc4c(NCCCCCCCCCNC(=O)c4cc(O)c5c(c4)C(=O)c4cccc(O)c4C5=O)c3C(C1)C2 (stereo not drawn) [Compound 3] |  | 58.2 ± 1.8 |  |  |  | 98 | 67.9 | 100 |  | > 100000 |  | 74.2 ± 1.6 | 97.2 | 92.9 |  |  | > 5.2 | 15.6 | 
CC1=CC2Cc3nc4cc(Cl)ccc4c(NCCCCCCCCCNC(=O)c4ccc5c(c4)C(=O)c4ccccc4-5)c3C(C1)C2 (stereo not drawn) [Compound 5, N-{9-[(3-Chloro-6,7,10,11-tetrahydro-9-methyl-7,11-methanocycloocta[b]quinolin-12-yl)amino]nonyl}-9-fluorenone-2-carboxamide] |  | 68.9 ± 2.1 | 883 ± 55 nM |  |  | 93.6 | 84.7 | 88.5 | 80.4 | > 100000 |  | 69.8 ± 1.2 | 95.7 | 90.4 | 5.93 ± 0.26 nM | 6.2 ± 0.8 | > 5.2 |  | 149
CC1=CC2Cc3nc4cc(Cl)ccc4c(NCCCCCCCCCNC(=O)c4ccc5c(c4)C(=O)c4ccccc4C5=O)c3C(C1)C2 (stereo not drawn) [Compound 4, N-{9-[(3-Chloro-6,7,10,11-tetrahydro-9-methyl-7,11-methanocycloocta[b]quinolin-12-yl)amino]nonyl}anthraquinone-2-carboxamide] |  | 63 ± 3.5 | 1250 ± 130 nM |  |  | 100 | 77.2 | 94.2 | 97.6 | > 100000 |  | 73.3 ± 3.6 | 96 | 90.1 | 6.91 ± 0.77 nM | 9.2 ± 1.2 | > 5.2 |  | 181
CC1=CC2Cc3nc4cc(Cl)ccc4c(NCCCCCCCCCNC(=O)c4cccc(C(=O)c5ccccc5)c4)c3C(C1)C2 (stereo not drawn) [Compound 6, 3-Benzoyl-N-{9-[(3-chloro-6,7,10,11-tetrahydro-9-methyl-7,11-methanocycloocta[b]quinolin-12-yl)amino]nonyl}benzamide] |  | 62.5 ± 2.1 | 16.5 ± 1.9 nM | 40–50 fold |  | 96 | 92.4 | 100 | 90.8 | 40100 |  | 72.6 ± 2.7 | 98.3 | 76.9 | 11.6 ± 0.9 nM | 7.4 ± 0.3 | > 5.2 |  | 
